Source: patent publication US8431704B2, “Quinoline or isoquinoline substituted P2X7 antagonists” (Janssen Pharmaceutica NV, priority 2008, dated 2013)

Legend:
hP2X7 = target: T1, hP2X7 (Homo sapiens, UniProt Q99572); experiment: P2X7 antagonism: ligand-induced Ca2+ flux in 1321N1 astrocytoma cells overexpressing hP2X7; assay type: cell-based; conditions: pIC50 = -log(IC50), read-out: hP2RX7pIC50 (mean pIC50 values) (converted)
T1 construct: expressed in transfected cells; host or cells: 1321N1 astrocytoma cells
T1 sequence (Q99572 1-595): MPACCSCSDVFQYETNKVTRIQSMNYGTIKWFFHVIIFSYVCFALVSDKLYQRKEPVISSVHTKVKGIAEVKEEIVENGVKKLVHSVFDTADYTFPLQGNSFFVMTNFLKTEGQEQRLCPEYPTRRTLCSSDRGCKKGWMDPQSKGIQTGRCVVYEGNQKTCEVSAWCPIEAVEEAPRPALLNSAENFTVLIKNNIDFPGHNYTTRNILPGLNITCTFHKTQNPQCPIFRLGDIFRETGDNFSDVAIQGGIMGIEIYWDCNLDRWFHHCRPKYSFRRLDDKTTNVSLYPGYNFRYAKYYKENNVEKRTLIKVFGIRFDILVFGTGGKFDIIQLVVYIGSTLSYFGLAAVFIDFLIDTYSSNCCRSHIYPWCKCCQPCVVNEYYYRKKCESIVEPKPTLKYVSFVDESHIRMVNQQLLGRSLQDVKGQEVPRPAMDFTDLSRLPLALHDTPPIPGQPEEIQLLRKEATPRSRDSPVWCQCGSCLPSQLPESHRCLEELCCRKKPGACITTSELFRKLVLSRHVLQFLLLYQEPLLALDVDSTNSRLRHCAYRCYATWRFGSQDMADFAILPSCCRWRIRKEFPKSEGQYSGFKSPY
In short: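 Intracellular Ca2+ tracked with a quenched Ca2+-sensitive fluorescent dye kit (excitation 488 nm, emission 510-560 nm) in 1321N1 cells, before and after agonist addition in presence of antagonist. Effects expressed as % control and IC50.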

P2X7 = target: T2, P2X7 (Homo sapiens, UniProt Q99572); experiment: THP-1 YoPro uptake assay (BzATP-stimulated Yo-Pro-1 uptake); assay type: cell-based; conditions: Table F-10, THP-1 cells, read-out: mean pIC50 values for P2X7 antagonism (converted)
T2 construct: endogenous in cells; host or cells: THP-1 human monocytic cell line
T2 sequence (Q99572 1-595): T1 sequence (Q99572 1-595)

| IC50 (hP2X7) [nM] | melting point [°C] | IC50 (P2X7) [nM] | Compound |
| --- | --- | --- | --- |
| 27.5 | 217.7 |  | O=C(NCC(c1cnc(C(F)(F)F)nc1)N1CCC(F)(F)CC1)c1cccc2ncccc12 (single isomer, unassigned) [Compound 46] |
| 25.1 | 187.3 |  | O=C(NCC(c1ccc(Cl)nc1)N1CCC(F)(F)CC1)c1cccc2ncccc12 (stereo not shown) [Compound 7] |
| 21.4 | 183.6 |  | O=C(NCC(c1cnc(C(F)(F)F)nc1)N1CCCCC1)c1cccc2ncccc12 (stereo not shown) [Compound 35] |
| 33.9 | 125.3 |  | O=C(NCC(c1cnc(C(F)(F)F)nc1)N1CCC(F)(F)CC1)c1cccc2nc(NCCO)ccc12 (stereo not shown) [Compound 39] |
| 224 | 206.9 |  | O=C(NCC(c1cnc(C(F)(F)F)nc1)N1CCC(F)(F)CC1)c1cccc2nc(O)ccc12 (stereo not shown) [Compound 77] |
| 25.7 | 202.9 |  | O=C(NCC(c1cnc(C(F)(F)F)nc1)N1CCC(F)(F)CC1)c1cccc2nc(N3CCNCC3)ccc12 (stereo not shown) [Compound 78] |
| 47.9 | 160 |  | Cc1ncc(C(CNC(=O)c2cccc3nc(N4CCOCC4)ccc23)N2CCC(F)(F)CC2)cn1 (stereo not shown) [Compound 96] |
| 91.2 | 191.5 |  | CC1CN(c2ccc3c(C(=O)NCC(c4cnc(C(F)(F)F)nc4)N4CCC(F)(F)CC4)cccc3n2)CC(C)O1 (stereo not shown) [Compound 140] |
|  |  | 10.7 | CSc1ncc(C(CNC(=O)c2c(Cl)ccc3ncccc23)N2CCC(F)(F)CC2)cn1 (stereo not shown) [Compound 582, 6-chloro-quinoline-5-carboxylic acid [2-(4,4-difluoro-piperidin-1-yl)-2-(2-methylsulfanyl-pyrimidin-5-yl)-ethyl]-amide] |
|  |  | 112 | O=C(NCC(c1cnc(C(F)(F)F)nc1)N1CCC(F)(F)CC1)c1c(Cl)ccc2nc(O)ccc12 (stereo not shown) [Compound 593] |
|  |  | 3.55 | Nc1ccc2c(C(=O)NCC(c3cnc(C(F)(F)F)nc3)N3CCC(F)(F)CC3)c(Cl)ccc2n1 (stereo not shown) [Compound 596] |
|  |  | 33.1 | O=C(NCC(c1cnc(C(F)(F)F)nc1)N1CCOCC1)c1c(F)ccc2ncccc12 (stereo not shown) [Compound 609] |

Continued, compound first:

| Compound | IC50 (hP2X7) [nM] | melting point [°C] | IC50 (P2X7) [nM] |
| --- | --- | --- | --- |
| O=C(NCC(c1ccc(C(F)(F)F)nc1)N1CCNCC1)c1cccc2ncccc12 (stereo not shown) [Compound 8] | > 10000 | 198 |  |
| O=C(NCC(c1ccc(C(F)(F)F)nc1)N1CCC(O)(c2ccc(Cl)cc2)CC1)c1cccc2ncccc12 (stereo not shown) [Compound 29] | > 10000 | 155 to 162.2 |  |
| NC(=O)C1CCN(C(CNC(=O)c2cccc3ncccc23)c2ccc(C(F)(F)F)nc2)CC1 (stereo not shown) [Compound 34] | > 10000 | 253.7 to 254.3 |  |
| O=C(NCC(c1cnc(C(F)(F)F)nc1)N1CCOCC1)c1cccc2nc(N3CCNCC3)ccc12 (stereo not shown) [Compound 102] | 72.4 | 234.3 |  |
| CC(C)(C)OC(=O)N1CCN(c2ccc3c(C(=O)NCC(c4cnc(C(F)(F)F)nc4)N4CCCC(F)(F)C4)cccc3n2)CC1 (stereo not shown) [Compound 106] | 138 | 159.7 |  |
| CC(C)N1CCN(c2ccc3c(C(=O)NCC(c4cnc(C(F)(F)F)nc4)N4CCC(F)(F)CC4)cccc3n2)CC1 (stereo not shown) [Compound 134] |  | 236.3 |  |
| N[C@H]1CCN(c2ccc3c(C(=O)NCC(c4cnc(C(F)(F)F)nc4)N4CCOCC4)c(Cl)ccc3n2)C1 (stereo partly shown) [Compound 563] |  |  | 0.851 |
| O=C(NCC(c1cnc(C(F)(F)F)nc1)N1CCOCC1)c1c(Cl)ccc2nc(N3C[C@@H]4CCCN[C@@H]4C3)ccc12 (stereo partly shown) [Compound 564] |  |  | 7.41 |
| O=C(NCC(c1cnc(C(F)(F)F)nc1)N1CCOCC1)c1c(Cl)ccc2nc(N3CC4CNC4C3)ccc12 (stereo not shown) [Compound 565] |  |  | 2.57 |
